The Ki is a dissociation constant, usually derived from enzyme kinetics or from competition with a known ligand.

Experimental findings from patent EP2768830B1, “APOPTOSIS-INDUCING AGENTS FOR THE TREATMENT OF CANCER AND IMMUNE AND AUTOIMMUNE DISEASES” (AbbVie Inc., priority 2011, dated 2013) are described below.

Where two headings read alike, the source gives them in different places. Bounds are passed on as bounds.

For one assay, the target named is GST-Bcl-xL (Homo sapiens, UniProt Q07817). The settings on record: read-out: TR-FRET binding Bcl-xL Ki. On the technique in general: In TR-FRET formats the signal depends on donor and acceptor labels being close together.
GST-Bcl-xL, sequence (Q07817 whole entry): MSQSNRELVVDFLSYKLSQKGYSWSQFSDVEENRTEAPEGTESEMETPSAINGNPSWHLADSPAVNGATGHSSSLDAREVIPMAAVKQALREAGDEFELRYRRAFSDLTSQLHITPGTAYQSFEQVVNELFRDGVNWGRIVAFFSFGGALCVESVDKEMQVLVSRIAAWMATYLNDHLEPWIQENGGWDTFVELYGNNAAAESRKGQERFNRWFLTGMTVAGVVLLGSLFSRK
The subject of assay [1] is mouse FL5.12 cells transfected with Bcl-XL. Description: FL5.12 cellular assay (cell viability, CellTiter-Glo).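 Also: each EC50 determination derived from duplicate measurements.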 It counts as cell-based. The settings on record: Mus musculus. (ATP-based viability assays read luminescence as a measure of living cells.)
Procedure: For assaying the compound activity, the cells were exchanged into an IL-3-depleted deprivation media, which was identical to the growth media except for the absence of FBS and WEHI-3B conditional media, for 2 days. Then the cells were exchanged to 3% FBS assay media (RPMI with 2 mM glutamine, 1% 100 mM sodium pyruvate, 2% 1 M HEPES, 4 µL/L of β-mercaptoethanol, 1% penicillin-streptomycin, 3% FBS). Compounds in series dilutions were added, and the cells were cultured for 24 hours. Compounds in series dilutions were added, and the cells were cultured for 24 hours. Cell viability was assayed using the CellTiter-Glo assay (Promega Corp., Madison, WI) according to the manufacturer instructions. Individual determinations were the result of duplicate values.
The target of a further assay is T1, GST-Bcl-2 (Homo sapiens, UniProt P10415).
T1 construct: made in house
T1 sequence (P10415 whole entry): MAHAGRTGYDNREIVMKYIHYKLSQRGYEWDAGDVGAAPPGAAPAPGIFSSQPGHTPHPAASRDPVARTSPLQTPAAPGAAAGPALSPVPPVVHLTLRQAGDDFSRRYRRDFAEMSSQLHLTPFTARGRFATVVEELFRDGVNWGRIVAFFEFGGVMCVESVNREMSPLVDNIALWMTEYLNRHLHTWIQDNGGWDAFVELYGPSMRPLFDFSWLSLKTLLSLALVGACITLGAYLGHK
The following applies: F-Bak probe, read-out: Ki, competition with F-Bak for the Bcl-2 binding site using the TR-FRET binding assay.

Setting [2] is: FL5.12 cells transfected with Bcl-XL, IL-3-depleted, 3% FBS assay media, 24 hours, CellTiter-Glo, read-out: FL5.12 Bcl-xL, - IL3, EC 50.

Turning to `Cc1c(-c2ccc(N3CCc4cccc(C(=O)Nc5nc6ccccc6s5)c4C3)nc2C(=O)O)cnn1Cc1ccccc1` [Example 20, 6-[8-(1,3-benzothiazol-2-ylcarbamoyl)-3,4-dihydroisoquinolin-2(1H)-yl]-3-(1-benzyl-5-methyl-1H-pyrazol-4-yl)pyridine-2-carboxylic acid], the Ki at GST-Bcl-xL was 2 nM; at GST-Bcl-2, 70 nM. In addition, the EC50 in assay [1] (setting [2]) stood at 13 nM.
`CN(C)CC#Cc1ccccc1Cn1cc(-c2ccc(N3CCc4cccc(C(=O)Nc5nc6ccccc6s5)c4C3)nc2C(=O)O)cn1` [Example 51, 6-[8-(1,3-benzothiazol-2-ylcarbamoyl)-3,4-dihydroisoquinolin-2(1H)-yl]-3-(1-{2-[3-(dimethylamino)prop-1-yn-1-yl]benzyl}-1H-pyrazol-4-yl)pyridine-2-carboxylic acid]: the Ki on GST-Bcl-xL was determined as 122 nM. The EC50 in assay [1] (setting [2]) was above 1000 nM.
Consider `COCCC1(Cn2ncc(-c3ccc(N4CCc5cccc(C(=O)Nc6nc7ccccc7s6)c5C4)nc3C(=O)O)c2C)CCCC(C)(C)C1` (stereo not drawn) [Example 146, 6-[8-(1,3-benzothiazol-2-ylcarbamoyl)-3,4-dihydroisoquinolin-2(1H)-yl]-3-(1-{[1-(2-methoxyethyl)-3,3-dimethylcyclohexyl]methyl}-5-methyl-1H-pyrazol-4-yl)pyridine-2-carboxylic acid], for which the inhibition constant (Ki) on GST-Bcl-xL was below 0.1 nM. For the same compound, the EC50 in assay [1] (setting [2]) is 11 nM.
The like results for `Cc1c(-c2ccc(N3CCc4cccc(C(=O)Nc5nc6ccccc6s5)c4C3)nc2C(=O)O)cnn1Cc1ccccc1OCCN1CCOCC1` [Example 79, 6-[8-(1,3-benzothiazol-2-ylcarbamoyl)-3,4-dihydroisoquinolin-2(1H)-yl]-3-(5-methyl-1-{2-[2-(morpholin-4-yl)ethoxy]benzyl}-1H-pyrazol-4-yl)pyridine-2-carboxylic acid] were, in that order, 0.5 nM and 19 nM.
For `Cc1c(-c2ccc(N3CCc4cccc(C(=O)Nc5nc6ccccc6s5)c4C3)nc2C(=O)O)cccc1N(C)C(=O)C1(C)CCCCC1` [Example 179, 6-[8-(1,3-benzothiazol-2-ylcarbamoyl)-3,4-dihydroisoquinolin-2(1H)-yl]-3-(2-methyl-3-{methyl[(1-methylcyclohexyl)carbonyl]amino}phenyl)pyridine-2-carboxylic acid], the Ki at GST-Bcl-xL is below 0.1 nM. Besides, in assay [1] (FL5.12, 24 h, read-out: FL5.12 Bcl-xL, - IL3, EC 50 (nM)), the EC50 was 6 nM.
As for `O=C(Nc1nc2ccccc2s1)c1cccc2c1CN(c1ccc(-c3cnn(CC4CCCOC4)c3)c(C(=O)O)n1)CC2` (stereo not drawn) [Example 56, 6-[8-(1,3-benzothiazol-2-ylcarbamoyl)-3,4-dihydroisoquinolin-2(1H)-yl]-3-[1-(tetrahydro-2H-pyran-3-ylmethyl)-1H-pyrazol-4-yl]pyridine-2-carboxylic acid], the Ki at GST-Bcl-xL was 24 nM. Also, the EC50 in assay [1] (setting [2]) is 583 nM.
The like results for `O=C(Nc1nc2ccccc2s1)c1cccc2c1CN(c1ccc(-c3cnn(C4CCc5ccccc54)c3)c(C(=O)O)n1)CC2` (stereo not drawn) [Example 37, 6-[8-(1,3-benzothiazol-2-ylcarbamoyl)-3,4-dihydroisoquinolin-2(1H)-yl]-3-[1-(2,3-dihydro-1H-inden-1-yl)-1H-pyrazol-4-yl]pyridine-2-carboxylic acid] were, in that order, 17 nM and 347 nM.
Take `O=C(Nc1nc2ccccc2s1)c1cccc2c1CN(c1ccc(-c3cnn(Cc4cccc(-c5ccccc5)c4)c3)c(C(=O)O)n1)CC2` [Example 58, 6-[8-(1,3-benzothiazol-2-ylcarbamoyl)-3,4-dihydroisoquinolin-2(1H)-yl]-3-[1-(biphenyl-3-ylmethyl)-1H-pyrazol-4-yl]pyridine-2-carboxylic acid]: at GST-Bcl-xL, the Ki turned out to be 174 nM. In assay [1] (setting [2]), the EC50 is above 1000 nM.
For `CN(C)CCCOc1ccccc1Cn1cc(-c2ccc(N3CCc4cccc(C(=O)Nc5nc6ccccc6s5)c4C3)nc2C(=O)O)cn1` [Example 47, 6-[8-(1,3-benzothiazol-2-ylcarbamoyl)-3,4-dihydroisoquinolin-2(1H)-yl]-3-(1-{2-[3-(dimethylamino)propoxy]benzyl}-1H-pyrazol-4-yl)pyridine-2-carboxylic acid], the Ki at GST-Bcl-xL is 16 nM. For the same compound, the EC50 in assay [1] (setting [2]) turned out to be 881 nM.
As for `COCCOC1(Cn2ncc(-c3ccc(N4CCc5cccc(C(=O)Nc6nc7ccccc7s6)c5C4)nc3C(=O)O)c2C)CCCCCC1` [Example 151, 6-[8-(1,3-benzothiazol-2-ylcarbamoyl)-3,4-dihydroisoquinolin-2(1H)-yl]-3-(1-{[1-(2-methoxyethoxy)cycloheptyl]methyl}-5-methyl-1H-pyrazol-4-yl)pyridine-2-carboxylic acid], the inhibitory constant (Ki) on GST-Bcl-xL was below 0.1 nM. In addition, the EC50 in assay [1] (setting [2]) came out at 0.6 nM.
In the case of `Cc1c(OC2CCCC(C)(C)C2)cccc1-c1ccc(N2CCc3cccc(C(=O)Nc4nc5ccccc5s4)c3C2)nc1C(=O)O` (stereo not drawn) [Example 121, 6-[8-(1,3-benzothiazol-2-ylcarbamoyl)-3,4-dihydroisoquinolin-2(1H)-yl]-3-{3-[(3,3-dimethylcyclohexyl)oxy]-2-methylphenyl}pyridine-2-carboxylic acid], the Ki on GST-Bcl-xL is 0.1 nM. Further, the EC50 in assay [1] (setting [2]) worked out at 82 nM.
The like results for `O=C(Nc1nc2ccccc2s1)c1cccc2c1CN(c1ccc(-c3cnn(CC4CCCCC4)c3C3CC3)c(C(=O)O)n1)CC2` [Example 70, 6-[8-(1,3-benzothiazol-2-ylcarbamoyl)-3,4-dihydroisoquinolin-2(1H)-yl]-3-[1-(cyclohexylmethyl)-5-cyclopropyl-1H-pyrazol-4-yl]pyridine-2-carboxylic acid] were, in that order, 5 nM and 58 nM.
With `COCCOc1ccccc1Cn1ncc(-c2ccc(N3CCc4cccc(C(=O)Nc5nc6ccccc6s5)c4C3)nc2C(=O)O)c1C` [Example 89, 6-[8-(1,3-benzothiazol-2-ylcarbamoyl)-3,4-dihydroisoquinolin-2(1H)-yl]-3-{1-[2-(2-methoxyethoxy)benzyl]-5-methyl-1H-pyrazol-4-yl}pyridine-2-carboxylic acid], the Ki on GST-Bcl-xL turned out to be 0.5 nM. For the same compound, the EC50 in assay [1] (setting [2]) came out at 23 nM.
The like results for `Cc1c(-c2ccc(N3CCc4cccc(C(=O)Nc5nc6ccccc6s5)c4C3)nc2C(=O)O)cnn1CC1(N2CCOCC2)CCCC(C)(C)C1` (stereo not drawn) [Example 145, 6-[8-(1,3-benzothiazol-2-ylcarbamoyl)-3,4-dihydroisoquinolin-2(1H)-yl]-3-(1-{[3,3-dimethyl-1-(morpholin-4-yl)cyclohexyl]methyl}-5-methyl-1H-pyrazol-4-yl)pyridine-2-carboxylic acid] were, in that order, below 0.1 nM and 0.2 nM.
For `CN(C)CCOc1cccc(Cn2cc(-c3ccc(N4CCc5cccc(C(=O)Nc6nc7ccccc7s6)c5C4)nc3C(=O)O)cn2)c1` [Example 18, 6-[8-(1,3-benzothiazol-2-ylcarbamoyl)-3,4-dihydroisoquinolin-2(1H)-yl]-3-(1-{3-[2-(dimethylamino)ethoxy]benzyl}-1H-pyrazol-4-yl)pyridine-2-carboxylic acid], the Ki on GST-Bcl-xL was 38 nM. Moreover, the EC50 in assay [1] (setting [2]) came out at 621 nM.
The like results for `CN(C)c1cccc(Cn2cc(-c3ccc(N4CCc5cccc(C(=O)Nc6nc7ccccc7s6)c5C4)nc3C(=O)O)cn2)c1` [Example 34, 6-[8-(1,3-benzothiazol-2-ylcarbamoyl)-3,4-dihydroisoquinolin-2(1H)-yl]-3-{1-[3-(dimethylamino)benzyl]-1H-pyrazol-4-yl}pyridine-2-carboxylic acid] were, in that order, 23 nM and 907 nM.
`COCCC(c1ccccc1)n1cc(-c2ccc(N3CCc4cccc(C(=O)Nc5nc6ccccc6s5)c4C3)nc2C(=O)O)cn1` (stereo not drawn) [Example 93, 6-[8-(1,3-benzothiazol-2-ylcarbamoyl)-3,4-dihydroisoquinolin-2(1H)-yl]-3-[1-(3-methoxy-1-phenylpropyl)-1H-pyrazol-4-yl]pyridine-2-carboxylic acid]: the Ki at GST-Bcl-xL turned out to be 16 nM. Further, in assay [1] (setting [2]), the EC50 is 295 nM.
For `Cc1c(-c2ccc(N3CCc4cccc(C(=O)Nc5nc6ccccc6s5)c4C3)nc2C(=O)O)ccnc1N(C)c1ccccc1` [Example 143, 6-[8-(1,3-benzothiazol-2-ylcarbamoyl)-3,4-dihydroisoquinolin-2(1H)-yl]-3'-methyl-2'-[methyl(phenyl)amino]-3,4'-bipyridine-2-carboxylic acid], at GST-Bcl-xL, the Ki is below 0.1 nM. Besides, the EC50 in assay [1] (setting [2]) was determined as 19 nM.
The like results for `O=C(Nc1nc2ccccc2s1)c1cccc2c1CN(c1ccc(-c3cnn(Cc4cccc(F)c4F)c3)c(C(=O)O)n1)CC2` [Example 52, 6-[8-(1,3-benzothiazol-2-ylcarbamoyl)-3,4-dihydroisoquinolin-2(1H)-yl]-3-[1-(2,3-difluorobenzyl)-1H-pyrazol-4-yl]pyridine-2-carboxylic acid] were, in that order, 18 nM and 570 nM.
